From the NIST ThermoML archive (doi:10.1016/j.jct.2016.04.001) come the findings set out here.

A short description of series [1]: molar heat capacity at constant pressure. The settings on record: 101.33 kPa, Crystal, Small sample (50 mg) DSC.
The conditions of series [2]: 296 K; 101.33 kPa; Crystal; X-ray diffraction.

± gives the expanded uncertainty stated by the source.

Regarding `CCCCC(O)(Cn1cncn1)c1ccc(Cl)cc1Cl` (configuration not stated), the “molar heat capacity at constant pressure” value in series [1] (283.15 K) came out at 342.68 ± 8.7 J/K/mol; in series [1] (288.15 K), 351.02 ± 8.9 J/K/mol; in series [1] (293.15 K), 358.22 ± 9.1 J/K/mol; in series [1] (298.15 K), 364.66 ± 9.2 J/K/mol; in series [1] (303.15 K), 370.65 ± 9.4 J/K/mol; in series [1] (308.15 K), 376.44 ± 9.5 J/K/mol. Besides, the “molar heat capacity at constant pressure” value in series [1] (313.15 K) was 382.23 ± 9.7 J/K/mol; in series [1] (318.15 K), 388.15 ± 9.8 J/K/mol; in series [1] (323.15 K), 394.25 ± 10 J/K/mol; in series [1] (328.15 K), 400.53 ± 10 J/K/mol; in series [1] (333.15 K) it was 406.94 ± 10 J/K/mol; in series [1] (338.15 K), 413.34 ± 10 J/K/mol. The “molar heat capacity at constant pressure” value in series [1] (343.15 K) turned out to be 419.55 ± 11 J/K/mol; in series [1] (348.15 K) it was 425.32 ± 11 J/K/mol; in series [1] (353.15 K), 430.33 ± 11 J/K/mol. In addition, the mass density in series [2] came out at 1331 ± 7 kg/m3.

`CC(C)(C)C(O)/C(=C\c1ccc(Cl)cc1Cl)n1cncn1` (configuration not stated) [Diniconazole]: the “molar heat capacity at constant pressure” value in series [1] (283.15 K) was 360.4 ± 9.1 J/K/mol; in series [1] (288.15 K), 367.41 ± 9.2 J/K/mol; in series [1] (293.15 K), 374.58 ± 9.4 J/K/mol; in series [1] (298.15 K), 381.72 ± 9.6 J/K/mol; in series [1] (303.15 K), 388.72 ± 9.8 J/K/mol; in series [1] (308.15 K), 395.47 ± 9.9 J/K/mol. For the same compound, the “molar heat capacity at constant pressure” value is listed as 401.89 ± 10 J/K/mol in series [1] (313.15 K); 407.93 ± 10 J/K/mol in series [1] (318.15 K); 413.6 ± 10 J/K/mol in series [1] (323.15 K); 418.9 ± 11 J/K/mol in series [1] (328.15 K); 423.89 ± 11 J/K/mol in series [1] (333.15 K); 428.65 ± 11 J/K/mol in series [1] (338.15 K). Also, the “molar heat capacity at constant pressure” value was 433.27 ± 11 J/K/mol in series [1] (343.15 K), 437.91 ± 11 J/K/mol in series [1] (348.15 K) and 442.73 ± 11 J/K/mol in series [1] (353.15 K). Besides, the mass density in series [2] came out at 1323 ± 7 kg/m3.
